Measured values published in patent US9101567B2, “Suppression of cancer growth and metastasis using nordihydroguaiaretic acid derivatives with 7-hydroxystaurosporine” (The Johns Hopkins University, priority 2010, dated 2015).

How the values were obtained:
Type in all cases: cell-based, human
caspase-3 or 9 = test: Western blotting of caspase-3 and 9 cleavage in HepG2 cells; settings: HepG2, 17 hrs; M4N 80 μM, UCN-01 5 μM
Protocol: After cells had been grown in […] flasks and treated with reagents, the cells were washed with PBS (−) three times and suspended in RIPA buffer (150 mM NaCl, 50 mM Tris-HCl (pH 8.0), 0.1% SDS, 1% NP40, and 0.5% deoxycholate) supplemented with protease inhibitor cocktail (Calbiochem, San Diego, Calif.). The sample volumes were adjusted by the total protein amount. Protein assay was performed by Bio-Rad Protein Assay (Bio-Rad Laboratories, Inc. Hercules, Calif.). The samples were resolved by the standard SDS-polyacrylamide gel electrophoresis and transferred to nitrocellulose membrane (Amersham Biosciences, Bjorkgatan, Sweden). […] The signals were detected by western blot chemiluminescence reagent plus (New England Nuclear Life Science Products, Boston, Mass.).
The effect of the combination treatments on cell death and autophagy was examined in two cell lines other than LNCaP cells. […] On the contrary caspase-7 cleavage was detected in MCF-7 cells treated with UCN-01 treatment alone, the combination treatments of M4N with either etoposide or UCN-01 (FIG. 4C). […] On the contrary a great deal of caspase-7 cleavage product was detected in HepG2 cells treated with UCN-01 or the combination treatment of M4N with UCN-01 while a small amount of caspase-7 cleavage product was detected in the cells treated with etoposide or rapamycin regardless of a concomitant treatment with M4N (FIG. 4C).

LC3B-II [1] = test: Western blotting of LC3B-I&II (autophagy) in LNCaP cells; settings: 18 hrs, in the presence of Baflomycin A1 (100 nM), M4N 80 μM
Protocol: (§1) The sample volumes were adjusted by the total protein amount. Protein assay was performed by Bio-Rad Protein Assay (Bio-Rad Laboratories, Inc. Hercules, Calif.). The samples were resolved by the standard SDS-polyacrylamide gel electrophoresis and transferred to nitrocellulose membrane (Amersham Biosciences, Bjorkgatan, Sweden). The membranes were blocked with skim milk, and incubated with primary antibodies at 4° C. overnight and then with secondary antibody conjugated with horse radish peroxidase at room temperature for 2 hrs. The signals were detected by western blot chemiluminescence reagent plus (New England Nuclear Life Science Products, Boston, Mass.).

Beclin-1 = test: Western blotting of Beclin-1 in LNCaP cells; settings: normoxic or hypoxic, 6 or 18 hr, M4N 80 μM
Protocol: The sample volumes were adjusted by the total protein amount. Protein assay was performed by Bio-Rad Protein Assay (Bio-Rad Laboratories, Inc. Hercules, Calif.). The samples were resolved by the standard SDS-polyacrylamide gel electrophoresis and transferred to nitrocellulose membrane (Amersham Biosciences, Bjorkgatan, Sweden). The membranes were blocked with skim milk, and incubated with primary antibodies at 4° C. overnight and then with secondary antibody conjugated with horse radish peroxidase at room temperature for 2 hrs. The signals were detected by western blot chemiluminescence reagent plus (New England Nuclear Life Science Products, Boston, Mass.). BNIP3 is a member of Bcl-2 family proteins which sends pro-apoptotic signal to mitochondria and induces mitochondrial membrane potential depolarization. […] This implies that BNIP3 is involved in autophagy as well as cell death. […] Since BNIP3 is known to be activated more under hypoxic conditions (24), BNIP3 expression was examined in both normoxic and hypoxic conditions (FIGS. 3A&B). […] Previously it was shown that BNIP3 expression is augmented by hypoxia through both […] (HIF)1α-dependent and nondependent pathways (24).

BNIP3 mRNA = test: Northern blotting of BNIP3 mRNA in LNCaP cells; settings: 6 hr exposure to hypoxic condition, M4N 80 μM
Protocol: RNA was extracted from the cells by a Trizol Reagent (Invitrogen, Carlsbad, Calif.). Twentyfive μg of RNA per lane was dissolved on the 1.5% agarose gel containing 20 mM NaPO4 (pH 6.8) and 6% formaldehyde. RNA was transferred to a Nytran SPC membrane (Sigma-Aldrich, St. Louis, Mo.). The probe for BNIP3 was derived from a 199 bp fragment DNA generated by RT-PCR using a SuperScript III First-Strand Synthesis System for RT-PCR (Invitrogen, Carlsbad, Calif.), 5′-primer ‘[…]’ and 3′-primer ‘[…]’. The PCR fragment was cloned into a topo vector (Invitrogen, Carlsbad, Calif.). After midi-prep, the DNA fragment was excised from the vector and dissolved on the 2% agarose gel and purified. The extracted DNA fragment was labeled by ^32P-αdATP, Klenow fragment, and random hexagonal primers. After unincorporated ^32P-αdATP was removed by a Sephadex G-50 spun column, the labeled DNA fragment was used as a probe. After hybridization, the membrane was washed and autoradiographed to a BioMax MR film (Kodak, Rochester, N.Y.).
BNIP3 is a member of Bcl-2 family proteins which sends pro-apoptotic signal to mitochondria and induces mitochondrial membrane potential depolarization. […] This implies that BNIP3 is involved in autophagy as well as cell death. […]

LC3B-II [2] = test: Western blotting of LC3B-II (autophagy) in HepG2 cells; settings: HepG2, 15 hrs; M4N 80 μM
Protocol: as §1, with “Mass.). The effect of […] on autophagy was examined using the western blotting for LC3B-II in the presence of Baflomycin A1 in MCF-7 and HepG2 cells (FIG. 4D).” for “Mass.).”

Row | SMILES | caspase-3 cleaved product (caspase-3 or 9) | net LC3B-II formation (net autophagic activity) (LC3B-II [1]) | Beclin-1 expression (Beclin-1) | BNIP3 mRNA expression (BNIP3 mRNA) | autophagy (LC3B-II in the presence of Baflomycin A1) (LC3B-II [2])
1 | CN[C@@H]1C[C@H]2O[C@@](C)([C@@H]1OC)n1c3ccccc3c3c4c(c5c6ccccc6n2c5c31)C(=O)N[C@H]4O [UCN-01, 7-hydroxystaurosporine] | small amount | – | – | – | –
2 | COc1ccc(C[C@@H](C)[C@@H](C)Cc2ccc(OC)c(OC)c2)cc1OC [M4N, Tetra-O-methyl nordihyroguaiaretic acid] | – | almost totally suppressed | not affected | suppressed the increase of BNIP3 mRNA expression | blocks autophagy
